Assay results from US20260184807A1, “Methods for Treating Rheumatoid Arthritis Using a Syndecan-1 Inhibitor or Syntenin-1 Inhibitor” (The United States Government as represented by the …, priority 2022, published 2026).

Tested on: RA FLS
Experiment: RA FLS scratch assay
Format: cell-based, human
Settings: Syntenin-1 1000 ng/ml 24 h; SDC1-Ab 1:100, mTORi 1 μM, HIF1αi 2 μM; FIGS. 16J-K
Protocol: RA STs were fluorescently stained to authenticate the colocalization of Mitofusin (MFN2) (FIGS. 16A-B) and DRP1 (FIGS. 16C-D) expression on Vimentin^+ FLS in the presence or absence of DAPI, (n=3, original magnification×60 or 500). RA FLS were treated with Syntenin-1 (1000 ng/ml) for 0-60 min to detect Mitofusin-2 and DRP1 expression (FIG. 16E, n=3) and actin served as equal loading, (n=3). RA FLS were treated with Syntenin-1 (1000 ng/ml) in the presence or absence of HIF1αi (2 μM) for 6 h to determine transcription of IL-1β (FIG. 16F, n=6), IL-6 (FIG. 16G, n=5), IL-8 (FIG. 16H, n=5) and CCL2 (I, n=6) by real-time RT-PCR. […] The number of cells in the scratch area was counted and compared to the untreated control, (K, n=4). RA FLS were treated with PBS or Syntenin-1 (1000 ng/ml) in the presence or absence of SDC-1 Ab (SDCab: 1:100), IL-5R Ab (IL5Ra; 2 μg/ml), or PDZli (PDZ1; 10 μM), and/or HIF1αi (2 μM) or mTORi ([…]) for 6 h before quantifying transcription levels of VEGF (FIG. 16L, n=5) and Notch1, FGF2, CXCL1, CXCL5 (FIG. 16K or 16M, n=8 or 7). Data are presented as mean±SEM; significant differences were determined by the Mann-Whitney test, 2way ANOVA, or one-way ANOVA. *p<0.05, **p<0.01, ***p<0.001, ****p<0.0001.
RA FLS and HUVEC scratch assay. […] The number of cells in the scratch area was counted and compared to the untreated control.

## CO[C@H]1C[C@@H]2CC[C@@H](C)[C@@](O)(O2)C(=O)C(=O)N2CCCC[C@H]2C(=O)O[C@H]([C@H](C)C[C@@H]2CC[C@@H](OCCO)[C@H](OC)C2)CC(=O)[C@H](C)/C=C(\C)[C@@H](O)[C@@H](OC)C(=O)[C@H](C)C[C@H](C)/C=C/C=C/C=C/1C [mTORi, Everolimus]
  Syntenin-1-driven RA FLS migration: intercepted
